This passage reports Dose results from ChEMBL document CHEMBL1121391, “Antiamebic amidines and sulfonamides of 5- and 6-amino-2,3-bis(4-alkyl-1-piperazinyl)quinoxalines” (1980).

For test [1], the system named is Entamoeba histolytica. In words: (§1) Lowest active dose which cured rats with Entamoeba histolytica cecal infection was measured. The test is classed as functional, organism-based.
For test [2], the system named is Entamoeba histolytica. In words: Lowest active dose which cured hamsters with Entamoeba histolytica hepatic infection was measured. The test is classed as functional.
For test [3], the system named is Entamoeba histolytica. The test is described as §1. Type of test: functional.
For test [4], the system named is Cricetinae gen. sp. As to the kind of experiment: Lowest active dose which cured the hamsters with Entamoeba histolytica hepatic infection was measured; IA means inactive. Type of test: functional, organism-based. Particulars: Cricetulus griseus.

The source made the active and inactive calls. No cut-off for these calls is given here.

As for `CN1CCN(c2nc3cc(Cl)cc(N)c3nc2N2CCN(C)CC2)CC1`, the Dose entry in test [1] is “inactive”.
With `CCN(/C=N/c1ccc2nc(N3CCN(C)CC3)c(N3CCN(C)CC3)nc2c1)CC`, the Dose result in test [1] is “inactive”.
As to `Cc1ncc([N+](=O)[O-])n1CCO` [METRONIDAZOLE], the Dose in test [2] and in test [3] was 10 mg/kg/day each time.
For `C/C(=N\c1cccc2nc(N3CCN(C)CC3)c(N3CCN(C)CC3)nc12)N(C)C`, the Dose entry in test [1] was “inactive”.
For `CC/C(=N\c1cc(Cl)cc2nc(N3CCN(C)CC3)c(N3CCN(C)CC3)nc12)N(C)C`, the Dose entry in test [1] is “inactive”.
As to `CC/C(=N\c1cccc2nc(N3CCN(C)CC3)c(N3CCN(C)CC3)nc12)N(C)C`, the Dose result in test [1] is “inactive”.
On the same count and under the same terms, with `CN(C)CCCN1CCN(/C=N/c2ccc3nc(N4CCN(C)CC4)c(N4CCN(C)CC4)nc3c2)CC1` the entry was “inactive”.
For `CCCN1CCN(c2nc3ccc(/N=C/N(C)C)cc3nc2N2CCN(CCC)CC2)CC1`, the Dose in test [2] came out at 100 mg/kg/day; in test [3], 50 mg/kg/day.
`CN1CCN(c2nc3ccc(/N=C/N4CCCCC4)cc3nc2N2CCN(C)CC2)CC1`: the Dose result in test [1] was “inactive”.
For the compound `CC/C(=N\c1ccc2nc(N3CCN(C)CC3)c(N3CCN(C)CC3)nc2c1)N(CC)CC`, in test [1], the Dose entry was “inactive”.
On to `CN1CCN(c2nc3ccc(NS(=O)(=O)c4ccc(Cl)cc4)cc3nc2N2CCN(C)CC2)CC1`, for which the Dose entry in test [1] is “inactive”.
With `Cc1ccc(S(=O)(=O)Nc2ccc3nc(N4CCN(C)CC4)c(N4CCN(C)CC4)nc3c2)cc1`, the Dose in test [2] came out at 100 mg/kg/day; in test [3] it was 50 mg/kg/day.
With `CN(C)/C=N/c1ccc2nc(N3CCN(C)CC3)c(N3CCN(C)CC3)nc2c1`, the Dose in test [2] was 50 mg/kg/day; in test [3], 20 mg/kg/day.
As for `Cc1ccc(S(=O)(=O)Nc2cccc3nc(N4CCN(C)CC4)c(N4CCN(C)CC4)nc23)cc1`, the Dose result in test [1] was “inactive”.
In turn, `CN1CCN(c2nc3ccc(N)cc3nc2N2CCN(C)CC2)CC1` yielded a Dose in test [3] of 50 mg/kg/day. In test [4], the Dose entry is “inactive”.
On to `CCCN1CCN(c2nc3ccc(N)cc3nc2N2CCN(CCC)CC2)CC1`, for which the Dose result in test [1] was “inactive”.
`CN1CCN(c2nc3ccc(NS(=O)(=O)c4cccc(C(F)(F)F)c4)cc3nc2N2CCN(C)CC2)CC1`: the Dose entry in test [1] was “inactive”.
Consider `CN1CCN(/C=N/c2ccc3nc(N4CCN(C)CC4)c(N4CCN(C)CC4)nc3c2)CC1`, for which the Dose result in test [1] is “inactive”.
On the same count and under the same terms, for `CCN(CC)/C(C)=N/c1cc(Cl)cc2nc(N3CCN(C)CC3)c(N3CCN(C)CC3)nc12` the value was “inactive”; for `C/C(=N\c1ccc2nc(N3CCN(C)CC3)c(N3CCN(C)CC3)nc2c1)N(C)C`, “inactive”.
On to `O=[N+]([O-])c1cncn1CCN1CCOCC1` [NIMORAZOLE], for which the Dose in test [2] is 100 mg/kg/day; in test [3] it was 20 mg/kg/day.
For `CN1CCN(c2nc3cccc(N)c3nc2N2CCN(C)CC2)CC1`, the Dose in test [3] was determined as 50 mg/kg/day. Besides, the Dose entry in test [4] was “inactive”.
`CN(C)CCCc1ccc(/C=N/c2ccc3nc(N4CCN(C)CC4)c(N4CCN(C)CC4)nc3c2)cc1` registered a Dose in test [3] of 50 mg/kg/day.
For `CN(C)/C=N/c1cccc2nc(N3CCN(C)CC3)c(N3CCN(C)CC3)nc12`, the Dose was determined as 50 mg/kg/day in test [2] and 10 mg/kg/day in test [3].
On to `CN(C)/C=N/c1cc(Cl)cc2nc(N3CCN(C)CC3)c(N3CCN(C)CC3)nc12` (stereo in doubt; 21), for which, in test [1], the Dose entry is “inactive”.
Same read-out and setting: for `CCCN1CCN(c2nc3cccc(N)c3nc2N2CCN(CCC)CC2)CC1` the value was “inactive”.
The same measure, in the same setting: for `CN1CCN(c2nc3cc(Cl)cc(NS(=O)(=O)c4ccc(Cl)cc4)c3nc2N2CCN(C)CC2)CC1` the value was “inactive”; for `CCCN1CCN(c2nc3ccc(NS(=O)(=O)c4ccc(C)cc4)cc3nc2N2CCN(CCC)CC2)CC1`, “inactive”.
`CCCN1CCN(c2nc3ccc(/N=C(\C)N(C)C)cc3nc2N2CCN(CCC)CC2)CC1`: the Dose entry in test [1] was “inactive”.
Take `CN(C)/C=N/c1cc(Cl)cc2nc(N3CCN(C)CC3)c(N3CCN(C)CC3)nc12` (stereo in doubt; 7): the Dose entry in test [1] was “inactive”.
